Test results taken from patent publication US9890147B2 (BAYER PHARMA AKTIENGESELLSCHAFT, priority 2012, dated 2018).

Assays:
[1] = system: MOLM-13 cells; test: Cell proliferation assay (alamarBlue), MOLM-13; assay type: cell-based; details: 96 hours incubation, inhibition of cell proliferation
Method in brief: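 IC50 = concentration giving 50% growth inhibition relative to buffer-treated cells, after subtracting baseline fluorescence taken before dosing. Compound applied at 1E-5 to 1E-8 M for 96 h at 37 °C in RPMI1640 with 10% FCS; alamarBlue signal at 530/590 nm.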

[2] = molecular target: T1, BRD4 (BD1) (Homo sapiens, UniProt O60885); test: Binding assay BRD4/acetylated peptide H4 (TR-FRET protein-protein interaction assay)
T1 construct: with relatively long constructs also being possible, preferably amino acids 44-168; made in house; host or cells: E. coli
Method in brief: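 Displacement of biotin-Ac-H4 peptide from His6-tagged BRD4(BD1), final usually 10 nM, read as Eu-streptavidin to anti-His-XL665 TR-FRET (665/620 nm). Compounds tested at 11 doses up to 20 μM in duplicate, pH 7.5 HEPES, 22 °C then 4 °C incubation; IC50 by 4-parameter regression.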

IC50 ([1]; Homo sapiens) [nM]	IC50 [2] [nM]	IC50 [1] [nM]	SMILES
5140	960	–	CNC(=O)N1N=C(c2ccc(-c3sc(C)nc3C)cc2)c2cc(OC)c(OC)cc2C[C@@H]1C (single isomer, unassigned) [Example 46.1]
810	170	–	CNC(=O)N1N=C(c2ccc(N3CCN(C)CC3=O)cc2)c2cc(OC)c(OC)cc2C[C@@H]1C [Example 43.1, (4S)-7,8-dimethoxy-N,4-dimethyl-1-[4-(4-methyl-2-oxopiperazin-1-yl)phenyl]-4,5-dihydro-3H-2,3-benzodiazepine-3-carboxamide]
9850	4520	–	CNC(=O)N1N=C(c2ccc(N3CCN(C)CC3=O)cc2)c2cc(OC)c(OC)cc2C[C@H]1C [Example 43.2, (4R)-7,8-dimethoxy-N,4-dimethyl-1-[4-(4-methyl-2-oxopiperazin-1-yl)phenyl]-4,5-dihydro-3H-2,3-benzodiazepine-3-carboxamide]
220	70	–	CNC(=O)N1N=C(c2ccc(-c3cn(C)nn3)cc2)c2cc(OC)c(OC)cc2C[C@@H]1C [Example 45.1, (4S)-7,8-dimethoxy-N,4-dimethyl-1-[4-(1-methyl-1H-1,2,3-triazol-4-yl)phenyl]-4,5-dihydro-3H-2,3-benzodiazepine-3-carboxamide]
230	20	–	CNC(=O)N1N=C(c2ccc(-c3ccc(O)nc3)cc2)c2cc(OC)c(OC)cc2C[C@@H]1C [Example 49.1, (4S)-1-[4-(6-hydroxypyridin-3-yl)phenyl]-7,8-dimethoxy-N,4-dimethyl-4,5-dihydro-3H-2,3-benzodiazepine-3-carboxamide]
370	110	–	CNC(=O)N1N=C(c2ccc(-c3ccc(C(F)(F)F)nc3)cc2)c2cc(OC)c(OC)cc2C[C@@H]1C [Example 50.1, (4S)-7,8-dimethoxy-N,4-dimethyl-1-{4-[6-(trifluoromethyl)pyridin-3-yl]phenyl}-4,5-dihydro-3H-2,3-benzodiazepine-3-carboxamide]
> 10000	1860	–	CNC(=O)N1N=C(c2ccc(-c3c(C)nn(C)c3C)cc2)c2cc(OC)c(OC)cc2C[C@H]1C [Example 51.1, (4R)-7,8-dimethoxy-N,4-dimethyl-1-[4-(1,3,5-trimethyl-1H-pyrazol-4-yl)phenyl]-4,5-dihydro-3H-2,3-benzodiazepine-3-carboxamide]
> 10000	8800	–	CNC(=O)N1N=C(c2ccc(N3CCN(C)CC3)cc2)c2cc(OC)c(OC)cc2C[C@H]1C [Example 127.2, (4R)-7,8-dimethoxy-N,4-dimethyl-1-[4-(4-methylpiperazin-1-yl)phenyl]-4,5-dihydro-3H-2,3-benzodiazepine-3-carboxamide]

Second part, the compound before the results:

SMILES	IC50 ([1]; Homo sapiens) [nM]	IC50 [2] [nM]	IC50 [1] [nM]
CNC(=O)N1N=C(c2ccc(Cl)cc2)c2cc(N3CCS(=O)(=O)CC3)c(OC(F)(F)F)cc2CC1C (racemic) [Example 216, (±)-1-(4-chlorophenyl)-8-(1,1-dioxidothiomorpholin-4-yl)-N,4-dimethyl-7-(trifluoromethoxy)-4,5-dihydro-3H-2,3-benzodiazepine-3-carboxamide]	1030	520	–
CNC(=O)N1N=C(c2ccc(N3CCN(CCO)CC3)cc2)c2ccc(OC(F)(F)F)cc2CC1C (racemic) [Example 218, (±)-1-{4-[4-(2-hydroxyethyl)piperazin-1-yl]phenyl}-N,4-dimethyl-7-(trifluoromethoxy)-4,5-dihydro-3H-2,3-benzodiazepine-3-carboxamide]	300	880	–
CNC(=O)N1N=C(c2ccc(N3CCN(C)CC3)cc2)c2cc(OC)c(OC(F)(F)F)cc2CC1C (racemic) [Example 219, (±)-8-methoxy-N,4-dimethyl-1-[4-(4-methylpiperazin-1-yl)phenyl]-7-(trifluoromethoxy)-4,5-dihydro-3H-2,3-benzodiazepine-3-carboxamide]	570	370	–
CCC1Cc2cc(OC)c(OC)cc2C(c2ccc(-c3c(C)nn(C)c3C)cc2)=NN1C(=O)NC (racemic) [Example 220, (±)-4-ethyl-7,8-dimethoxy-N-methyl-1-[4-(1,3,5-trimethyl-1H-pyrazol-4-yl)phenyl]-4,5-dihydro-3H-2,3-benzodiazepine-3-carboxamide]	2400	490	–
CCC1Cc2cc(OC)c(OC)cc2C(c2ccc(-c3cn(C)nn3)cc2)=NN1C(=O)NC (racemic) [Example 222, (±)-4-ethyl-7,8-dimethoxy-N-methyl-1-[4-(1-methyl-1H-1,2,3-triazol-4-yl)phenyl]-4,5-dihydro-3H-2,3-benzodiazepine-3-carboxamide]	2120	960	–
CNC(=O)N1N=C(c2ccc(Cl)cc2)c2ccc(N3CCOC3=O)cc2CC1C (racemic) [Example 230, (±)-1-(4-chlorophenyl)-N,4-dimethyl-7-(2-oxo-1,3-oxazolidin-3-yl)-4,5-dihydro-3H-2,3-benzodiazepine-3-carboxamide]	230	240	–
CNC(=O)N1N=C(c2ccc(Cl)cc2)c2ccc(-c3cn(C)nn3)cc2CC1C (racemic) [Example 243, (±)-1-(4-chlorophenyl)-N,4-dimethyl-7-(1-methyl-1H-1,2,3-triazol-4-yl)-4,5-dihydro-3H-2,3-benzodiazepine-3-carboxamide]	340	320	–
COc1cc2c(cc1OC)C(c1ccc(N3CCN(C)CC3)cc1)=NN(C(C)=O)C(C)C2 (racemic) [Example 245, (±)-1-{7,8-Dimethoxy-4-methyl-1-[4-(4-methylpiperazin-1-yl)phenyl]-4,5-dihydro-3H-2,3-benzodiazepin-3-yl}ethanone]	860	620	–
COc1cc2c(cc1OC)C(c1ccc(-c3c(C)noc3C)cc1)=NN(C(C)=O)C(C)C2 (racemic) [Example 246, (±)-1-{1-[4-(3,5-dimethyl-1,2-oxazol-4-yl)phenyl]-7,8-dimethoxy-4-methyl-4,5-dihydro-3H-2,3-benzodiazepin-3-yl}ethanone]	2060	330	–
CNC(=O)N1N=C(c2ccc(-c3nnc(C)o3)cc2)c2cc(OC)c(OC)cc2CC1C (racemic) [Example 247, (±)-7,8-Dimethoxy-N,4-dimethyl-1-[4-(5-methyl-1,3,4-oxadiazol-2-yl)phenyl]-4,5-dihydro-3H-2,3-benzodiazepine-3-carboxamide]	570	190	–
CNC(=O)N1N=C(c2ccc(-c3nc(C)no3)cc2)c2cc(OC)c(OC)cc2CC1C (racemic) [Example 248, (±)-7,8-Dimethoxy-N,4-dimethyl-1-[4-(3-methyl-1,2,4-oxadiazol-5-yl)phenyl]-4,5-dihydro-3H-2,3-benzodiazepine-3-carboxamide]	140	190	–
CNC(=O)N1N=C(c2ccc(N3CCC(O)CC3)cc2)c2cc(OC(F)(F)F)ccc2CC1C (racemic) [Example 251, (±)-1-[4-(4-hydroxy-1-piperidinyl)phenyl]-N,4-dimethyl-8-(trifluoromethoxy)-4,5-dihydro-3H-2,3-benzodiazepine-3-carboxamide]	100	30	–
CNC(=O)N1N=C(c2ccc(Cl)cc2)c2cc(OC(F)(F)F)c(Cl)cc2CC1C (single isomer, unassigned) [Example 15.1, 7-Chloro-1-(4-chlorophenyl)-N,4-dimethyl-8-(trifluoromethoxy)-4,5-dihydro-3H-2,3-benzodiazepine-3-carboxamide]	3050	450	–
CNC(=O)N1N=C(c2ccc(N3CCOCC3)cc2)c2cc(OC)c(OC)cc2C[C@H]1C [Example 7.1, (4R)-7,8-dimethoxy-N,4-dimethyl-1-[4-(morpholin-4-yl)phenyl]-4,5-dihydro-3H-2,3-benzodiazepine-3-carboxamide]	> 10000	3190	–
CNC(=O)N1N=C(c2ccc(-c3cnn(C)c3)cc2)c2cc(OC)ccc2C[C@@H]1C [Example 21, (4S)-8-methoxy-N,4-dimethyl-1-[4-(1-methyl-1H-pyrazol-4-yl)phenyl]-4,5-dihydro-3H-2,3-benzodiazepine-3-carboxamide]	560	130	–
CCc1cc(C2CC2)nn1-c1ccc(C2=NN(C(=O)NC)[C@@H](C)Cc3ccc(OC)cc32)cc1 [Example 24]	1170	250	–
CCc1cc(C2CC2)n(-c2ccc(C3=NN(C(=O)NC)[C@@H](C)Cc4ccc(OC)cc43)cc2)n1 [Example 25, (4S)-1-[4-(5-cyclopropyl-3-ethyl-1H-pyrazol-1-yl)phenyl]-8-methoxy-N,4-dimethyl-4,5-dihydro-3H-2,3-benzodiazepine-3-carboxamide]	740	160	–
CNC(=O)N1N=C(c2ccc(-n3nc(C4CC4)cc3-c3ccccn3)cc2)c2cc(OC)ccc2C[C@@H]1C [Example 29, (4S)-1-{4-[3-cyclopropyl-5-(pyridin-2-yl)-1H-pyrazol-1-yl]phenyl}-8-methoxy-N,4-dimethyl-4,5-dihydro-3H-2,3-benzodiazepine-3-carboxamide]	360	130	–
CNC(=O)N1N=C(c2ccc(-n3cnnn3)cc2)c2cc(OC)ccc2C[C@@H]1C [Example 30, (4S)-8-Methoxy-N,4-dimethyl-1-[4-(1H-tetrazol-1-yl)phenyl]-4,5-dihydro-3H-2,3-benzodiazepine-3-carboxamide]	790	230	–
CNC(=O)N1N=C(c2ccc(Cl)cc2)c2cc(OCCN3CCCC3)ccc2CC1C (centres unmarked) [Example 33]	–	770	3310
